Drawing on ChEMBL document CHEMBL1221352, “Synthesis and biological activity of flavanone derivatives” (Bioorg Med Chem Lett, 2010), this text covers Activity, IC50 and EC50 for 18 compounds.

One experiment deals with Bel-7402. As to the kind of experiment: Antitumor activity against human Bel7402 cells. The class given is functional. Further details: concentration or dose not given beside the values; call rule not given here.
The test system of a further experiment is HL-60. As to the kind of experiment: Antitumor activity against human HL60 cells. The format is functional. More on the design: concentration or dose not given beside the values.
For a further experiment, the system named is BGC-823. As to the kind of experiment: Antitumor activity against human BGC823 cells. The format is functional. More on the design: concentration or dose not given beside the values.
Another experiment relates to KB. As to the kind of experiment: Antitumor activity against human KB cells. The class given is functional. Further details: concentration or dose not given beside the values.
Experiment [1] in a line: Inhibition of protein tyrosin kinase.
A short description of experiment [2]: Antivegetative activity against rat VSMC. The format is functional, cell-based.
A further experiment has as its system HUVEC. As to the kind of experiment: Cytoprotectant activity against H2O2-induced injury in HUVEC cells. The class given is functional, cell-based, Homo sapiens.
Where [3] appears, read: Homo sapiens, HUVEC, read-out: EC50.

Molecules are shown by their SMILES.

In general, IC50 refers to the concentration that gives 50% inhibition. What is called EC50 is the midpoint of the concentration-response curve. Consider `Cc1c(O)c(C)c2c(c1O)C(=O)CC(c1c[nH]c3ccccc13)O2` (centres undefined), for which the Activity with Bel-7402 is 6.45%; with HL-60, 11.39%; in the experiment with BGC-823 it was 1.67%; in the experiment on KB it was 10.47%. The IC50 result in experiment [1] and in experiment [2] was “Not Active” each time. Further, in the experiment with HUVEC (setting [3]), the EC50 is more than 10 µM.
Turning to `Cc1c(O)c(C)c2c(c1O)C(=O)CC(c1ccc(O)cc1)O2` (centres undefined), the Activity with Bel-7402 was -6.53%; with HL-60, -3.37%; with BGC-823 it was -23.52%; in the experiment with KB, -7.21%. Further, the concentration for half-maximal inhibition (IC50) in experiment [1] (read-out: IC50) is more than 200 µM; in experiment [2], “Not Active”. For the same compound, in the experiment on HUVEC (setting [3]), the concentration for a half-maximal effect (EC50) is more than 20 µM.
As for `Cc1c(O)c(C)c2c(c1O)C(=O)CC(c1ccccc1O)O2` (centres undefined), the Activity with Bel-7402 is reported as -1.8%; in the experiment on HL-60, -6.47%; in the experiment with BGC-823 it was -6.69%; in the experiment with KB, 44.54%. Further, the IC50 in experiment [1] (read-out: IC50) is 55 µM; in experiment [2], “Not Active”. Moreover, the EC50 with HUVEC (setting [3]) is more than 20 µM.
Consider `Cc1c(O)c(C)c2c(c1O)C(=O)CC(c1cccc(O)c1)O2` (centres undefined), for which the Activity with Bel-7402 is reported as -5.48%; in the experiment with HL-60, -4.04%; in the experiment with BGC-823 it was -7.6%; with KB it was 28.66%. In addition, the results for the IC50 in experiment [1] (read-out: IC50) and in experiment [2] were 51 µM and “Not Active”, respectively. In addition, the EC50 in the experiment with HUVEC (setting [3]) was more than 20 µM.
Take `Cc1c(O)c(C)c2c(c1O)C(=O)CC(c1ccc(Cl)cc1)O2` (centres undefined): the Activity in the experiment with Bel-7402 is -7.1%; in the experiment with HL-60, 7.65%; in the experiment with BGC-823, -22.45%; in the experiment with KB, 15.89%. The concentration for half-maximal inhibition (IC50) entry in experiment [1] and in experiment [2] was “Not Active” in each case. Also, the EC50 with HUVEC (setting [3]) is more than 50 µM.
With `Cc1c(O)c(C)c2c(c1O)C(=O)CC(c1ccccc1Cl)O2` (centres undefined), the Activity with Bel-7402 was 18.7%; in the experiment with HL-60, 2.94%; in the experiment on BGC-823, 36.98%; in the experiment on KB it was 28.63%. The IC50 in experiment [1] (read-out: IC50) is more than 50 µM; in experiment [2] (read-out: IC50), more than 20 µM. In the experiment with HUVEC (setting [3]), the 50% effective concentration (EC50) is more than 20 µM.
With `Cc1c(O)c(C)c2c(c1O)C(=O)CC(c1ccc([N+](=O)[O-])cc1)O2` (centres undefined), the Activity is on record as 2.05% in the experiment on Bel-7402, -0.46% in the experiment with HL-60, -7.41% with BGC-823 and -9.11% in the experiment with KB. In addition, the concentration for half-maximal inhibition (IC50) result in experiment [1] and in experiment [2] was “Not Active” in each case. In addition, the half-maximal effective concentration (EC50) in the experiment with HUVEC (setting [3]) is more than 20 µM.
Take `Cc1c(O)c(C)c2c(c1O)C(=O)CC(c1ccccc1[N+](=O)[O-])O2` (centres undefined): the Activity is 27.18% in the experiment on Bel-7402, -6.16% in the experiment with HL-60, 52% with BGC-823 and 29.04% with KB. Also, the IC50 is more than 50 µM in experiment [1] (read-out: IC50) and 9.9 µM in experiment [2] (read-out: IC50). Besides, in the experiment on HUVEC (setting [3]), the concentration giving a half-maximal response (EC50) is more than 5 µM.
Turning to `COc1ccc(C2CC(=O)c3c(O)c(C)c(O)c(C)c3O2)cc1` (centres undefined), the Activity with Bel-7402 is 15.15%; with HL-60, 8.52%; in the experiment with BGC-823, -28.89%; with KB, -11.99%. In addition, the IC50 in experiment [1] (read-out: IC50) and in experiment [2] (read-out: IC50) was more than 100 µM throughout. Moreover, in the experiment with HUVEC (huvec), the concentration giving a half-maximal response (EC50) result is “Not Active”.
In the case of `COc1ccccc1C1CC(=O)c2c(O)c(C)c(O)c(C)c2O1` (centres undefined), the IC50 in experiment [1] (read-out: IC50) is more than 100 µM; in experiment [2], “Not Active”. Besides, the EC50 with HUVEC (setting [3]) is more than 20 µM.
On to `COc1ccc(C2CC(=O)c3c(O)c(C)c(O)c(C)c3O2)c(OC)c1` (centres undefined), for which the IC50 entry in experiment [1] and in experiment [2] was “Not Active” throughout. Moreover, in the experiment with HUVEC (huvec), the half-maximal effective concentration (EC50) entry is “Not Active”.
In the case of `COc1cc(O)ccc1C1CC(=O)c2c(O)c(C)c(O)c(C)c2O1` (centres undefined), the Activity in the experiment on Bel-7402 is listed as 2.54%; in the experiment with HL-60 it was -1.29%; with BGC-823 it was 4.85%; in the experiment with KB, -18.83%. For the same compound, the IC50 in experiment [1] (read-out: IC50) was more than 200 µM; in experiment [2] (read-out: IC50), more than 100 µM. In addition, the EC50 in the experiment with HUVEC (setting [3]) was more than 20 µM.
For `Cc1c(O)c(C)c2c(c1O)C(=O)CC(c1ccco1)O2` (centres undefined), the Activity in the experiment with Bel-7402 is 3.27%; in the experiment on HL-60, 12.96%; in the experiment on BGC-823, -9.68%; in the experiment on KB it was -26.34%. Besides, the values for the IC50 entry in experiment [1] and in experiment [2] (read-out: IC50) were “Not Active” and 6.7 µM, respectively. In addition, in the experiment on HUVEC (setting [3]), the EC50 is more than 20 µM.
With `Cc1c(O)c(C)c2c(c1O)C(=O)CC(c1ccsc1)O2` (centres undefined), the Activity stood at 11.59% in the experiment with Bel-7402, 10.82% with HL-60, 50.71% in the experiment with BGC-823 and 16.07% in the experiment with KB. In addition, the IC50 result in experiment [1] and in experiment [2] was “Not Active” in each case. For the same compound, the concentration for a half-maximal effect (EC50) in the experiment with HUVEC (setting [3]) is more than 50 µM.
For the compound `Cc1c(O)c(C)c2c(c1O)C(=O)CC(c1ccc(O)c(O)c1)O2` (centres undefined) [CYRTOMINETIN], the Activity was -7.68% with Bel-7402, -4.85% in the experiment with HL-60, -19.81% with BGC-823 and 45.3% with KB. For the same compound, the 50% inhibitory concentration (IC50) is more than 50 µM in experiment [1] (read-out: IC50) and “Not Active” in experiment [2]. In addition, the concentration giving a half-maximal response (EC50) in the experiment with HUVEC (setting [3]) was more than 20 µM.
With `Cc1c(O)c(C)c2c(c1O)C(=O)C[C@@H](c1ccccc1)O2` [DEMETHOXYMATTEUCINOL], the Activity in the experiment on Bel-7402 is 2.63%; with BGC-823, 13.51%; in the experiment with KB, 3.64%. The IC50 in experiment [2] (read-out: IC50) is more than 100 µM. The concentration giving a half-maximal response (EC50) result in the experiment with HUVEC (huvec) is on record as “Not Active”.
For `COc1ccc2cc1Oc1ccc(cc1)C[C@H]1c3cc(c(OC)cc3CCN1C)Oc1c(OC)c(OC)cc3c1[C@H](C2)N(C)CC3` [FANCHININ], in experiment [2] (read-out: IC50), the IC50 came to 1.48 µM.
On to `O=c1c(-c2ccc(O)cc2)coc2cc(O)cc(O)c12` [GENISTEIN], for which the IC50 in experiment [1] (read-out: IC50) came out at 13.6 µM.
